The subject of data set [1] is MDA-MB-231 cells. The experiment in a line: HCA of apoptosis and ERK phosphorylation (multiparametric: nuclear condensation, caspase-3 cleavage, ERK phosphorylation). It counts as cell-based, human. The settings on record: for IC50: Homo sapiens, 24 hours. The method, then: MDA-MB-231 cells (10,000/well) were treated with identical concentration gradients of test agents on the right and left half of a 384 well microplate for later assessment of potential compound autofluorescence. After 24 hours, cells were fixed, permeabilized with 0.2% Triton X-100, blocked with 1% BSA/PBS, and immunostained with anti-phospho-ERK (E10, CST cat#9106L)/AlexaFluor488 and anti-cleaved caspase-3 (CST cat#9664L)/AlexaFluor594 primary/secondary antibody pairs. Plates were imaged on the ArrayScan II using a 10×0.5NA objective. Each well was background corrected by subtracting mean phospho-ERK and cleaved caspase-3 intensities from wells that had received secondary antibody only. Data in Table 1 are the averages of the indicated numbers of independent experiments, each performed in quadruplicate. IC50, standard error, and 95% confidence intervals were calculated by […] in GraphPad Prism.
Multiple data points were analyzed in GraphPad Prism by one-way ANOVA using Dunnett's multiple comparison test. EC50/IC50 values were obtained from at least three independent experiments by non-linear regression using a four parameter logistic equation. IC50, standard error, and 95% confidence intervals were calculated in GraphPad.

In data set [2] the test system is rat hepatocytes. The experiment in a line: Five-day hepatocyte toxicity (PI positive cells). Format: cell-based. The method, then: (§1) Rat hepatocytes were isolated using standard two step collagenase digestion (15) and sub-cultivated at 14,000 hepatocytes/well in collagen-1 coated 384 well plates in Williams E Medium supplemented with 10% FBS, 2 mM L-glutamine and 50 U/ml Penicillin and streptomycin. After 4 hours, medium was decanted and replaced with Hepatocyte Maintenance Media (Williams E supplemented with 1.25 mg/ml bovine serum albumin, 6.25 μg/ml human insulin, 100 nM dexamethasone, 6.25 μg/ml human transferrin, 6.25 ng/ml selenous acid, 2 mM L-glutamine, 15 mM HEPES, 100 U/mL penicillin, and 100 U/mL streptomycin). After overnight culture, cells were treated with concentration gradients of test agents. One hour after compound addition, cells were labeled with 200 nM TMRE and 4 μg/ml Hoechst 33342 for 45 min, imaged live on an ArrayScan VTI using a 10× objective, and images were analyzed with the Compartmental Bioapplication. Mitochondria were identified as cytosolic spots by size and brightness. The final parameter was % HIGH RingSpotAvgIntenCh2 (i.e., percentage of cells with TMRE puncta in the cytoplasm based on a threshold set with vehicle treated cells).
A gelling solution of 1.25 mg/ml rat tail collagen type I in pH 7.2 90:10 (v/v) Williams E media/10×HBSS was overlaid onto the rat hepatocytes. The collagen gel was incubated for 1 hour at 37° C., 5% CO2. The collagen sandwich cultures were then challenged for 5 days to test compounds in Hepatocyte Maintenance Media, without refeeding. A 10× solution of 40 μg/ml Hoechst 33342 was added during the final 2 hours of incubation followed by a 10× solution of 20 μg/ml PI for 1 hour. Cells were imaged and the percentage of PI positive cells calculated as above.

The subject of data set [3] is rat hepatocytes. The experiment in a line: Hepatocyte mitochondrial function (TMRE staining). It counts as cell-based. The method, then: as §1
Data set [4] has as its system MDA-MB-231 cells. The experiment in a line: HCA of cell motility and cytotoxicity (Oris Pro 384 cell migration plate). Format: cell-based, human. The settings on record: 48 hours, at antimigratory concentrations. The method, then: HCA of cell motility and cytotoxicity was performed essentially as described (51). MDA-MB-231 cells (15,000/well) were plated in collagen-coated Oris™ Pro 384-well microplates (Platypus Technologies cat # PRO384CMACCS) containing a chemical exclusion zone that dissolves upon cell seeding. Two hours after plating, medium was removed, and cells treated with ten-point, two-fold concentration gradients of test agents. Forty-eight hours after treatment, cells were stained with 10 μg/ml Hoechst 33342 and 1 μg/ml PI in HBSS for 15 min at 37° C. Plates were washed once with PBS and scanned live on the ArrayScan II using a 5× objective. To capture cells that had entered into the exclusion zone, a single field was acquired in the center of the well and nuclei therein enumerated. To assess changes in cell loss, nuclear size, and necrotic cell death, a second scan was performed that captured one field at the edge of the well (51). Parameters exported and plotted were SelectedObjectCountPerValidField (cell density), MEAN ObjectAreaCh1 (nucleus size), and % RESPONDER MeanAvgIntenCh2 (percent PI positive cells based on based on a threshold set with vehicle treated cells).

The test system of data set [5] is MDA-MB-231 cells. The experiment in a line: Detection and quantitation of ROS in cancer cells (CM-H2-DCFDA). The settings on record: for EC50: read-out: EC50 of ROS generation. Format: cell-based, human. The method, then:
Detection and quantitation of ROS in cancer cells was performed as described before (14). Briefly, MDA-MB-231 cells were labeled with Hoechst 33342, loaded with CM-H2-DCFDA (5 μM, 15 min), and treated with test agents for 10 min. After two washes, cells were analyzed for Hoechst and ROS/FITC fluorescence on the ArrayScan II. Cells were classified as positive for ROS if their average FITC intensity exceeded a threshold defined as the average FITC intensity plus one SD from DMSO-treated wells.

Data set [6] relates to ERK, JNK/SAPK, p38, MEK1 and MKK4/SEK1 phosphorylation. Kind of data set: Western blot of MAPK cascade phosphorylation. It counts as cell-based, human. As to conditions: MDA-MB-231 cells, 20 μM.
Data set [7] relates to NCI 60 cell line panel. As to conditions: NSC150117, last tested June 2016; cited from earlier work.
Data set [8] concerns DUSP6/MKP-3 and DUSP1/MKP-1. As to conditions: HeLa cells, prior study (12); cited from earlier work.
Data set [9] deals with patient-derived pre-B acute lymphoblastic leukemia (pre-B-ALL) cells. As to conditions: literature (46); cited from earlier work.
Data set [10] deals with MDA-MB-231 cells. The experiment in a line: Toxicity reversal (rescue from BCI-215 toxicity by MAPK inhibitors). Format: cell-based, human. As to conditions: MAPK inhibitor pre-incubation, then BCI-215 25 μM, 24 hours. The method, then: Cells were pre-treated (30 min for SCH772984, SP600125, SB203580, and 3 hours for JNK-IN-8) with identical concentration gradients of MAPK inhibitors on the right and left halves of a 384 well microplate. After preincubation, half of the microplate was treated with vehicle (DMSO), the other with a pro-apoptotic concentration of BCI-215 (25 μM). To eliminate potential bias through plate/edge effects, an independent plate was prepared in parallel where vehicle and BCI-215 treatments were reversed. Twenty-four hours thereafter, plates were stained with Hoechst 33342, washed once, and imaged on the ArrayScan II using a 10× objective for analysis for cell numbers and nuclear morphology. Plates were subsequently immunostained with a cleaved caspase-3/Cy5-conjugated secondary antibody pair and analyzed for apoptosis on an ArrayScan VTI using a 20×0.75 NA objective. Four independent readouts were extracted and correlated: cell density (SelectedObjectCountPerValidField), nuclear condensation (MEAN_ObjectAvgIntenCh1), nucleus rounding (MEAN_ObjectShapeLWRCh1), and average cellular cleaved caspase-3 intensity (MEAN_AvgIntenCh2). For each parameter, data were normalized to vehicle (maximum rescue) and BCI-215 (no rescue) as % rescue=1−((data point−DMSO)/(DMSO-BCI-215))*100.

Data set [11] deals with cellular MAPK activity. As to conditions: literature value; cited from earlier work.
For data set [12], the system named is MDA-MB-231 cells. Kind of data set: Immune cell killing (sensitization to PBMC-derived LAK). Format: cell-based, human. The settings on record: pre-treated 24 hours: BCI-215 3 μM, cisplatin 2 μM, doxorubicin 400 nM. The method, then:
Peripheral blood mononuclear cells were obtained from healthy volunteers with an established IRB approved protocol, separated from heparinized blood on Ficoll-hypaque (GE Healthcare, Chicago) gradients as previously reported (16). Cells were cultured in RPMI 1640 supplemented with 10% FCS, 1% glutamine, 1% penicillin/streptomycin, and stimulated with 6,000 IU of Interleukin 2 for 24 hours. After incubation, cells were washed with PBS and counted. In parallel, MBA-MB-231 cells were pre-treated in a 384 well plate with vehicle or BCI-215 (3 μM). After 24 hours in culture, medium was replaced and PBMC added in two-fold serial dilutions starting with a 50-fold excess of PBMCs in triplicate. After 24 hours of co-culture, cells were fixed with formaldehyde/Hoechst 33342, washed twice with PBS, and imaged on the ArrayScan II. Cancer cells were identified by their larger nuclei compared with PBMC, setting a size gate in the DAPI channel. In experiments with chemotherapeutics, cells carrying a biosensor consisting of a mitochondrial targeting sequence derived from cytochrome c oxidase VIII linked to GFP that is a surrogate for cytochrome c release from mitochondria (17) were pre-treated for 24 hours with cisplatin (2 μM) or doxorubicin (400 nM), exposed to LAK as above, and cancer cells identified and quantified by green fluorescence. Cell densities were normalized to those in the absence of PBMCs. Mean cell densities from multiple independent experiments were averaged and plotted in GraphPad Prism.

Setting [13] is: rat hepatocytes, 5-day exposure.

Like-named read-outs stand apart in the source and are kept apart here.

Turning to `O=C1/C(=C/c2ccccc2)C(NC2CCCCC2)c2ccccc21` (centres unmarked) [BCI, (E)-2-benzylidene-3-(cyclohexylamino)-2,3-dihydro-1H-inden-1-one], in data set [1] (BCI and BCI-215 at 22 μM), the nuclear morphology result is given as “shrunken, condensed nuclei that resembled pyknosis”. In addition, the IC50 (in general, the point on the concentration scale where inhibition reaches its midpoint) in data set [1] (induction of phospho-ERK, read-out: IC50 ERK phosphorylation) stood at 8.59 µM; in data set [1] (read-out: IC50 Caspase-3 cleavage), 9.17 µM; in data set [1] (read-out: IC50 Nuclear condensation) it was 12.8 µM. The “hepatocyte toxicity, cell death (PI positive cells)” value (from here on “hepatocyte toxicity, cell death”) in data set [2] (setting [13]) is given as “caused cell death”. Besides, the “mitochondrial membrane integrity / potential (TMRE)” value in data set [3] is reported as “did not affect mitochondrial potential”. The “necrosis (% PI positive cells)” value in data set [4] is “Necrosis was reduced”. Besides, in data set [5] (Homo sapiens), the EC50 is 20 µM. The “activation (phosphorylation) of ERK, JNK/SAPK and p38” value in data set [6] was “activated all three kinases”. Further, in data set [7], the GI50 (as a rule, the concentration giving 50% growth inhibition) was 1840 nM. The “effect on ectopic DUSP6/MKP-3 and DUSP1/MKP-1 expression” value in data set [8] is recorded as “override the effects”. In addition, the “cell death in pre-B-ALL cells” value in data set [9] was “selectively induced cell death”.

With `Cc1cc(NC(=O)c2cccc(NC(=O)/C=C/CN(C)C)c2)ccc1Nc1nccc(-c2cccnc2)n1` [JNK-IN-8], in [10], the “reversal of BCI-215-induced cell loss, nuclear morphology changes and apoptosis” value is “no effect”. Also, in data set [11], the “published concentration reported to inhibit cellular MAPK activity” value is 0.5 µM.

As for `O=C1C(SCCO)=C(SCCO)C(=O)c2ccccc21` [NSC95397], the “hepatocyte toxicity, cell death” value in data set [2] (setting [13]) is “caused cell death”. Besides, the “mitochondrial membrane integrity / potential (TMRE)” value in [3] is reported as “loss of mitochondrial membrane integrity”. The “necrosis (% PI positive cells)” value in data set [4] is given as “caused necrosis at antimigratory concentrations”. Also, in data set [5], the “time to ROS generation” value was ≤ 30 min and the EC50 fell in the range of 3 to 5 µM.

In the case of `C[S+]([O-])c1ccc(-c2nc(-c3ccncc3)c(-c3ccc(F)cc3)[nH]2)cc1` (centres unmarked) [SB203580], in data set [10], the “reversal of BCI-215-induced cell loss, nuclear morphology changes and apoptosis” value is listed as “partially reversed”. In addition, the “published concentration reported to inhibit cellular MAPK activity” value in data set [11] is 10 µM.

For `O=C(Nc1ccc2[nH]nc(-c3ccncc3)c2c1)[C@@H]1CCN(CC(=O)N2CCN(c3ccc(-c4ncccn4)cc3)CC2)C1` [SCH772984], the “reversal of BCI-215-induced cell loss, nuclear morphology changes and apoptosis” value in data set [10] is given as “no effect”. For the same compound, the “published concentration reported to inhibit cellular MAPK activity” value in [11] was 0.03 µM.

As to `N.N.[Cl][Pt][Cl]` [cisplatin], the “sensitization to LAK activity” value in data set [12] is “sensitized cells to LAK activity”.

With `COc1cccc2c1C(=O)c1c(O)c3c(c(O)c1C2=O)C[C@@](O)(C(=O)CO)C[C@@H]3O[C@H]1C[C@H](N)[C@H](O)[C@H](C)O1` [doxorubicin], in data set [12], the “sensitization to LAK activity” value is “sensitized cells to LAK activity”.

Consider `CC1=CC(=O)c2ccccc2C1=O` [menadione], for which the “hepatocyte toxicity, cell death” value in [2] was “caused cell death”. The “mitochondrial membrane integrity / potential (TMRE)” value in data set [3] is on record as “loss of mitochondrial membrane integrity”.

For the compound `C[n+]1cc2c3c(ccc2c2ccc4cc5c(cc4c21)OCO5)OCO3` [sanguinarine], the “hepatocyte toxicity, cell death” value in [2] (setting [13]) is on record as “caused cell death”. The “mitochondrial membrane integrity / potential (TMRE)” value in data set [3] is listed as “loss of mitochondrial membrane integrity”.

The values are drawn from patent US20190358176A1, “METHODS OF SENSITIZING CANCER CELLS TO IMMUNE CELL KILLING” (University of Pittsburgh - of the Commonwealth System of …, priority 2017, published 2019).
